From patent publication US20050239173A1, “Production of amino sugars” (Cargill, Inc., priority 2003, published 2005)

Columns and labels:
[1] = test system: S. cerevisiae strain BY4742; test: Growth of S. cerevisiae strains in the presence of glucosamine (OD600); type: cell-based, Saccharomyces cerevisiae; conditions: BY4742 GFA1pESCHis
Protocol: (§1) S. cerevisiae strains BY4742 and BY4743 transformed with pESCHis carrying the GFA1 insert were grown in 5 mL SC-His medium containing 2% glucose overnight at 30° C. with shaking. An aliquot (0.5 mL) from each culture was transferred to 6 flasks containing 50 mL of SC-His medium containing 2% glucose. Glucosamine at the following concentrations was added to the flasks: 0, 2, 6, 10, 15, 20 mg/mL for each strain. The incubation was continued for 28 h at 30° C. with shaking. At 3, 16 and 28 h samples were withdrawn and the optical density at 600 nm was measured.

[2] = test system: S. cerevisiae strain BY4743; test: as above; type: cell-based, Saccharomyces cerevisiae; conditions: BY4743 GFA1pESCHis
Protocol: as §1

[3] = test system: S. cerevisiae strain BY4742; test: as above; type: cell-based, Saccharomyces cerevisiae; conditions: parental strains of Examples 1-3 (BY4742 and BY4743); concentrations of glucosamine as high as 20 g/L
osteoarthritis = conditions: patients; cited from earlier work
[4] = target: T1, E. coli N-acetylglucosamine-6-phosphate deacetylase (Escherichia coli, UniProt P0AF18); test: Enzymatic deacetylation of N-acetylglucosamine followed over time (Elson and Morgan assay); type: biochemical; conditions: 37° C.; for [Glucosamine]: 0.1 mL of 500 mM N-acetylglucosamine in 0.2 mL, Tris-HCl pH 7.8, nagA cell extract
T1 construct: The Xa protease recognition site (IEGR) sits directly in front of the start codon of the gene of interest; His-tag (N); S-tag (N); Factor Xa recognition site (IEGR) (N); made in house; host or cells: E. coli BL21(DE3), pET30(Xa/LIC)
Protocol: Fermentation broth and cell extract samples were routinely assayed using the method of Elson and Morgan (Biochem. J. 27:1824-1828) described by Zalkin (1985, Method Enzymol. 113:278-281) and Roden et al. (1997, Anal. Biochem. 254:240-248). Typically, to 0.08 mL of fermentation broth or 0.015 to 0.02 mL of cell extract was added 0.01 mL of saturated sodium bicarbonate solution and 0.01 mL of cold, freshly prepared 5% aqueous acetic anhydride. After a 3 minute incubation at room temperature, the mixture was incubated at 100° C. for 3 min to drive off the excess acetic anhydride. After cooling to room temperature, 0.12 mL of potassium borate, pH 9.2, was added and the mixture was incubated at 100° C. for 3 min. After cooling to room temperature, 1.0 mL of Ehrlich's reagent (1 gram p-dimethylaminobenzaldehyde in 100 mL glacial acetic acid containing 0.125 M HCl) was added to each tube. The tubes were incubated at 37° C. for 20 min and the absorbance at 585 nm was measured. All samples were assayed in duplicate. A standard curve was generated using 0.005 to 0.1 μmole glucosamine for quantification of product formation. Samples were assayed with and without the acetic anhydride addition to determine the amounts of glucosamine and N-acetylglucosamine present in the sample. The amount of N-acetylglucosamine was calculated from the results of assays without the acetic anhydride addition. The amount of glucosamine was calculated as the difference between the results with and without the acetic anhydride addition.
The enzymatic deacetylation of N-acetylglucosamine was followed over time. In a total of 0.2 mL was mixed 0.1 mL of 500 mM N-acetylglucosamine, 0.02 mL of 0.5 M Tris-HCl, pH 7.8 and nagA protein (cell extract fraction; 3.5 mg/mL protein). The mixtures were incubated from 0 to 120 min at 37° C. To distinguish between glucosamine and N-acetylglucosamine using the Elson and Morgan method described in the Materials and Methods section, the product formation in the samples was measured with and without the acetylation step. The amount of glucosamine was calculated as the difference between the assay results with and without the acetylation step. After 120 min approximately 74% of the substrate N-acetylglusosamine was converted to glucosamine.

[5] = target: glucosamine-6-phosphate synthase (Escherichia coli, UniProt P17169); conditions: White, Biochem. J. 106:847-858 (1968); cited from earlier work
Sequence of glucosamine-6-phosphate synthase (P17169 whole entry): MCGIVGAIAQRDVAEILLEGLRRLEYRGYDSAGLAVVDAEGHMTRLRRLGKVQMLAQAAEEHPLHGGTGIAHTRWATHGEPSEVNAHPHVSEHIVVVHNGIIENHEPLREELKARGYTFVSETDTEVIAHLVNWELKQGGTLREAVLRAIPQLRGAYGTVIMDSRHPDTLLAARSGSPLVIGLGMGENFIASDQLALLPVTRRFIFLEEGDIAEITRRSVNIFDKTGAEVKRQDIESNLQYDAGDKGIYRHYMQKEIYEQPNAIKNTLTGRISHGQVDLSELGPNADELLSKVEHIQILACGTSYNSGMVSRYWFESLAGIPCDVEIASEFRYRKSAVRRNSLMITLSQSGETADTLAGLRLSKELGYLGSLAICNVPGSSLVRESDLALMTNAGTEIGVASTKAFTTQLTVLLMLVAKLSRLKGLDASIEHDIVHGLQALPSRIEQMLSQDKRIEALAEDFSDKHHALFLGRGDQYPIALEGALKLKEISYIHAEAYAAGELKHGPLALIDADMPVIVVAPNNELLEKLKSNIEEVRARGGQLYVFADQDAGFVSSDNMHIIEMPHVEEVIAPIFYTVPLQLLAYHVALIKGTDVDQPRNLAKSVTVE

Which OD600 ([1]; glucosamine 2.0 mg/mL, 3 h) does the source give for `N[C@H]1C(O)O[C@H](CO)[C@@H](O)[C@@H]1O` (stereo partly shown) [glucosamine, 2-amino-2-deoxyglucopyranose] here?
Its OD600 is 0.71.

What about the OD600 ([1]; glucosamine 2.0 mg/mL, 16 h) of the same compound?
The OD600 was 3.06.

And the OD600 ([1]; glucosamine 2.0 mg/mL, 28 h)?
The OD600 was 3.32.

And the OD600 ([1]; glucosamine 6.0 mg/mL, 3 h)?
The OD600 was 0.66.

What about the OD600 ([1]; glucosamine 6.0 mg/mL, 16 h) of the same compound?
The OD600 was 2.98.

What about the OD600 ([1]; glucosamine 6.0 mg/mL, 28 h) of the same compound?
Its OD600 is 3.27.

What about the OD600 ([1]; glucosamine 10.0 mg/mL, 3 h) of the same compound?
The OD600 was 0.64.

And the OD600 ([1]; glucosamine 10.0 mg/mL, 16 h)?
Its OD600 is 2.87.

What about the OD600 ([1]; glucosamine 10.0 mg/mL, 28 h) of the same compound?
Its OD600 is 3.06.

And the OD600 ([1]; glucosamine 15.0 mg/mL, 3 h)?
Its OD600 is 0.60.

What about the OD600 ([1]; glucosamine 15.0 mg/mL, 16 h) of the same compound?
Its OD600 is 2.92.

And the OD600 ([1]; glucosamine 15.0 mg/mL, 28 h)?
Its OD600 is 3.22.

What about the OD600 ([1]; glucosamine 20.0 mg/mL, 3 h) of the same compound?
Its OD600 is 0.57.

What about the OD600 ([1]; glucosamine 20.0 mg/mL, 16 h) of the same compound?
Its OD600 is 2.84.

And the OD600 ([1]; glucosamine 20.0 mg/mL, 28 h)?
The OD600 was 3.02.

What about the OD600 ([2]; glucosamine 2.0 mg/mL, 3 h) of the same compound?
The OD600 was 0.74.

And the OD600 ([2]; glucosamine 2.0 mg/mL, 16 h)?
Its OD600 is 4.12.

And the OD600 ([2]; glucosamine 2.0 mg/mL, 28 h)?
Its OD600 is 4.69.

And the OD600 ([2]; glucosamine 6.0 mg/mL, 3 h)?
Its OD600 is 0.76.

And the OD600 ([2]; glucosamine 6.0 mg/mL, 16 h)?
The OD600 was 3.99.

And the OD600 ([2]; glucosamine 6.0 mg/mL, 28 h)?
The OD600 was 5.02.

And the OD600 ([2]; glucosamine 10.0 mg/mL, 3 h)?
Its OD600 is 0.66.

And the OD600 ([2]; glucosamine 10.0 mg/mL, 16 h)?
Its OD600 is 4.18.

And the OD600 ([2]; glucosamine 10.0 mg/mL, 28 h)?
The OD600 was 4.36.

And the OD600 ([2]; glucosamine 15.0 mg/mL, 3 h)?
The OD600 was 0.68.

And the OD600 ([2]; glucosamine 15.0 mg/mL, 16 h)?
The OD600 was 4.00.

And the OD600 ([2]; glucosamine 15.0 mg/mL, 28 h)?
The OD600 was 4.14.

What about the OD600 ([2]; glucosamine 20.0 mg/mL, 3 h) of the same compound?
Its OD600 is 0.38.

And the OD600 ([2]; glucosamine 20.0 mg/mL, 16 h)?
Its OD600 is 3.78.

What about the OD600 ([2]; glucosamine 20.0 mg/mL, 28 h) of the same compound?
Its OD600 is 3.98.

And the “effect of glucosamine on the parental strains” value [3]?
The value was “not affected”.

What about the “effect on joint structure” value (osteoarthritis) of the same compound?
Its value is “improve joint structure”.

And the “effect on pain of osteoarthritis” value (osteoarthritis)?
The value was “reduce the pain of osteoarthritis in some patients”.

For `CC(=O)N[C@@H](C=O)[C@@H](O)[C@H](O)[C@H](O)CO` [N-acetylglucosamine, 2-acetamino-2-deoxy-D-glucose], which “[Glucosamine]” value ([4]; 0 min) is on record?
The value was 0.0 mM.

What about the “[Glucosamine]” value ([4]; 15 min) of the same compound?
The value was 126.3 mM.

And the “[Glucosamine]” value ([4]; 30 min)?
Its value is 136.3 mM.

And the “[Glucosamine]” value ([4]; 60 min)?
Its value is 161.3 mM.

And the “[Glucosamine]” value ([4]; 120 min)?
The value was 185.0 mM.

And the “substrate converted to glucosamine” value ([4]; after 120 min, nagA cell extract)?
The value was “approximately 74%”.

For `N[C@H]1C(O)O[C@H](COP(=O)(O)O)[C@@H](O)[C@@H]1O` (stereo partly shown) [glucosamine-6-phosphate], which “inhibition of glucosamine-6-phosphate synthase activity” value [5] is on record?
The value was “inhibited”.
